# Data published in PMC8398451, “Molecular Engineering of Curcumin, an Active Constituent of Curcuma longa L. (Turmeric) of the Family Zingiberaceae with Improved Antiproliferative Activity” (Plants, 2021).
# Where two headings read alike, the source gives them in different places.
# Tests used:
# HL-60(TB) = assay: cells; format: cell-based
# EKVX = assay: NCI antiproliferative SRB assay, Non-Small Cell Lung Cancer panel; format: cell-based, Human
# HOP-62 = assay: as above; format: cell-based, Human
# HOP-92 = assay: as above; format: cell-based
# NCI-H226 = assay: as above; format: cell-based, Human
# NCI-H460 = assay: as above; format: cell-based, Human
# NCI-H522 = assay: as above; format: cell-based, Human
# HCC-2998 = assay: NCI antiproliferative SRB assay, Colon Cancer panel; format: cell-based, Human
# HCT-15 = assay: as above; format: cell-based, Human
# SW-620 = assay: as above; format: cell-based, Human
# SF-295 = assay: NCI antiproliferative SRB assay, CNS Cancer panel; format: cell-based, Human
# SNB-75 = assay: NCI antiproliferative SRB assay, CNS Cancer panel; format: cell-based, Human
# OVCAR-3 = assay: NCI antiproliferative SRB assay, Ovarian Cancer panel; format: cell-based, Human
# OVCAR-8 = assay: as above; format: cell-based, Human
# 786–0 = assay: NCI antiproliferative SRB assay, Renal Cancer panel; format: cell-based, Human
# A498 = assay: as above; format: cell-based, Human
# ACHN = assay: as above; format: cell-based, Human
# SN 12C = assay: as above; format: cell-based, Human
# TK-10 = assay: as above; format: cell-based, Human
# DU-145 = assay: NCI antiproliferative SRB assay, Prostate Cancer panel; format: cell-based, Human
# Leukemia cell line panel = assay: NCI antiproliferative assay, panel summary; format: cell-based, Human; conditions: for GI50: Homo sapiens
# Melanoma cell line panel = assay: NCI antiproliferative assay, panel summary; format: cell-based, Human
# [1] = tested on: Prostate Cancer cell line panel; assay: NCI antiproliferative assay, panel summary; format: cell-based, Human
# 60 NCI cancer cell lines = assay: NCI antiproliferative assay, summary over all lines; format: cell-based; conditions: for GI50: Homo sapiens, 5-dose assay
# EGFR = target: T1, EGFR (Homo sapiens, UniProt P00533); assay: Spectrophotometric assay for EGFR tyrosine kinase inhibition in A431 cells; format: cell-based; conditions: absorbance at 540 nm
# T1 construct: tested for anti-EGFR activity in human A431 cells, which express high levels of EGFR protein; endogenous in cells; host or cells: human A431 cells
# T1 sequence (P00533 25-1210): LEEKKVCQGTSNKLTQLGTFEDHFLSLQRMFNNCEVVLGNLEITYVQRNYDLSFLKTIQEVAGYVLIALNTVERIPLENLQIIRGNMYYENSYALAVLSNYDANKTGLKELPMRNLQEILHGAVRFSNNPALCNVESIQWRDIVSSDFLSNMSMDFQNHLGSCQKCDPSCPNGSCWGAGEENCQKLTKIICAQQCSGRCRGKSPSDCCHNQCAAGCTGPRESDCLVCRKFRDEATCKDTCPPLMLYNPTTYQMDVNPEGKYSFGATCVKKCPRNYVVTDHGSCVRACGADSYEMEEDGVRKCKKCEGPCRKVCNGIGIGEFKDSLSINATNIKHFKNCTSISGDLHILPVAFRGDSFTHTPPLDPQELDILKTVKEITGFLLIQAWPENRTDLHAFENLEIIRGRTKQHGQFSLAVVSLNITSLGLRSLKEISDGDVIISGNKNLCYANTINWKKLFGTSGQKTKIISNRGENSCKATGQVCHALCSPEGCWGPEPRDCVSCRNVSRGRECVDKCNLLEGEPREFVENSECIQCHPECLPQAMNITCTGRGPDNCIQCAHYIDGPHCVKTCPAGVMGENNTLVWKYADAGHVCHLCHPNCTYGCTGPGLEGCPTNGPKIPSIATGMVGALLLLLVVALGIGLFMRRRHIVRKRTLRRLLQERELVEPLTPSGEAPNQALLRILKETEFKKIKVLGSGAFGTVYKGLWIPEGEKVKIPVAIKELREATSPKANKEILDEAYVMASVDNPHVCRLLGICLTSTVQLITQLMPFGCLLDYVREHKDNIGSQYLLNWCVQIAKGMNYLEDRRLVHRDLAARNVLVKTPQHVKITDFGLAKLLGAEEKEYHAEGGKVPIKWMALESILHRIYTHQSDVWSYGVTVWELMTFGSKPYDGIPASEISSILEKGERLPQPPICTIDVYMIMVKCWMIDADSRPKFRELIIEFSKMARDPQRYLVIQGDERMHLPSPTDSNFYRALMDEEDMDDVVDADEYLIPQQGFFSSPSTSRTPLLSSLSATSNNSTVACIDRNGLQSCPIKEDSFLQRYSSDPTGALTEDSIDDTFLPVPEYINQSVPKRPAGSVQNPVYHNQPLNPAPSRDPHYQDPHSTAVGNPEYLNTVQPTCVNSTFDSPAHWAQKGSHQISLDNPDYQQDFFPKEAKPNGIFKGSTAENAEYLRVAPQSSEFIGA
# [2] = Homo sapiens, 5-dose 0.01-100 µM
# [3] = Homo sapiens, 5-dose 0.01-100 µM, read-out: LC50 (the source's name)
# [4] = Homo sapiens, 5-dose assay, read-out: Sub Panel MID b (mean GI50 of panel)
# [5] = mean over cell lines, one dose 10 µM
structure (smiles),measurement,setting,value
COc1cc(/C=C/c2cc(/C=C/c3ccc(O)c(OC)c3)n(C(=O)Nc3ccc(C(F)(F)F)cc3)n2)ccc1O [3c],TGI,HL-60(TB); 5-dose 0.01-100 µM,6.45 µM
same,GI50,HL-60(TB); [2],1.98 µM
same,CC50,HL-60(TB); [3],> 100 µM
same,%GI,HL-60(TB); one dose 10 µM,84.83%
same,GP (growth percent),HL-60(TB); one dose 10 µM,15.17
same,TGI,EKVX; 5-dose 0.01-100 µM,38.4 µM
same,GI50,EKVX; [2],3.22 µM
same,CC50,EKVX; [3],> 100 µM
same,%GI,EKVX; one dose 10 µM,38.75%
same,GP (growth percent),EKVX; one dose 10 µM,61.25
same,TGI,HOP-62; 5-dose 0.01-100 µM,16.2 µM
same,GI50,HOP-62; [2],3.6 µM
same,CC50,HOP-62; [3],> 100 µM
same,%GI,HOP-62; one dose 10 µM,37.13%
same,GP (growth percent),HOP-62; one dose 10 µM,62.87
same,TGI,HOP-92; 5-dose 0.01-100 µM,6.79 µM
same,GI50,HOP-92; Homo sapiens,2.35 µM
same,CC50,HOP-92; [3],> 100 µM
same,TGI,NCI-H226; 5-dose 0.01-100 µM,27.6 µM
same,GI50,NCI-H226; [2],7.29 µM
same,CC50,NCI-H226; [3],91.7 µM
same,%GI,NCI-H226; one dose 10 µM,17.33%
same,GP (growth percent),NCI-H226; one dose 10 µM,82.67
same,TGI,NCI-H460; 5-dose 0.01-100 µM,9.95 µM
same,GI50,NCI-H460; [2],3.22 µM
same,CC50,NCI-H460; [3],50.7 µM
same,%GI,NCI-H460; one dose 10 µM,81.71%
same,GP (growth percent),NCI-H460; one dose 10 µM,18.29
same,TGI,NCI-H522; 5-dose 0.01-100 µM,4.65 µM
same,GI50,NCI-H522; [2],1.78 µM
same,CC50,NCI-H522; [3],40.8 µM
same,%GI,NCI-H522; one dose 10 µM,92.68%
same,GP (growth percent),NCI-H522; one dose 10 µM,7.32
same,TGI,HCC-2998; 5-dose 0.01-100 µM,3.82 µM
same,GI50,HCC-2998; [2],2.04 µM
same,CC50,HCC-2998; [3],71.2 µM
same,%GI,HCC-2998; one dose 10 µM,−2.63%
same,GP (growth percent),HCC-2998; one dose 10 µM,102.63
same,TGI,HCT-15; 5-dose 0.01-100 µM,9.63 µM
same,GI50,HCT-15; [2],2.69 µM
same,CC50,HCT-15; [3],> 100 µM
same,%GI,HCT-15; one dose 10 µM,74.49%
same,GP (growth percent),HCT-15; one dose 10 µM,25.51
same,TGI,SW-620; 5-dose 0.01-100 µM,5.90 µM
same,GI50,SW-620; [2],2.56 µM
same,CC50,SW-620; [3],33.6 µM
same,%GI,SW-620; one dose 10 µM,82.00%
same,GP (growth percent),SW-620; one dose 10 µM,18.00
same,TGI,SF-295; 5-dose 0.01-100 µM,9.85 µM
same,GI50,SF-295; [2],2.89 µM
same,CC50,SF-295; [3],76.5 µM
same,%GI,SF-295; one dose 10 µM,16.58%
same,GP (growth percent),SF-295; one dose 10 µM,83.42
same,TGI,SNB-75; 5-dose 0.01-100 µM,66.0 µM
same,GI50,SNB-75; [2],2.99 µM
same,CC50,SNB-75; [3],> 100 µM
same,%GI,SNB-75; one dose 10 µM,28.20%
same,GP (growth percent),SNB-75; one dose 10 µM,71.80
same,TGI,OVCAR-3; 5-dose 0.01-100 µM,26.7 µM
same,GI50,OVCAR-3; [2],3.41 µM
same,CC50,OVCAR-3; [3],> 100 µM
same,%GI,OVCAR-3; one dose 10 µM,86.24%
same,GP (growth percent),OVCAR-3; one dose 10 µM,13.76
same,TGI,OVCAR-8; 5-dose 0.01-100 µM,>100 µM
same,GI50,OVCAR-8; [2],3.33 µM
same,CC50,OVCAR-8; [3],> 100 µM
same,%GI,OVCAR-8; one dose 10 µM,99.57%
same,GP (growth percent),OVCAR-8; one dose 10 µM,0.43
same,TGI,786–0; 5-dose 0.01-100 µM,7.52 µM
same,GI50,786–0; [2],2.42 µM
same,CC50,786–0; [3],> 100 µM
same,%GI,786–0; one dose 10 µM,79.93%
same,GP (growth percent),786–0; one dose 10 µM,20.07
same,GI50,A498; [2],5.81 µM
same,CC50,A498; [3],57.3 µM
same,%GI,A498; one dose 10 µM,-8.03%
same,GP (growth percent),A498; one dose 10 µM,108.03
same,TGI,ACHN; 5-dose 0.01-100 µM,7.08 µM
same,GI50,ACHN; [2],2.48 µM
same,CC50,ACHN; [3],> 100 µM
same,GP (growth percent),ACHN; one dose 10 µM,65.82
same,TGI,SN 12C; 5-dose 0.01-100 µM,9.90 µM
same,GI50,"SN 12C; Homo sapiens, SN12C, 5-dose 0.01-100 µM",2.73 µM
same,CC50,"SN 12C; Homo sapiens, SN12C, 5-dose 0.01-100 µM, read-out: LC50 (the source's name)",> 100 µM
same,%GI,SN 12C; one dose 10 µM,63.08%
same,GP (growth percent),SN 12C; one dose 10 µM,36.92
same,TGI,TK-10; 5-dose 0.01-100 µM,14.8 µM
same,GI50,TK-10; [2],4.13 µM
same,CC50,TK-10; [3],59.4 µM
same,%GI,TK-10; one dose 10 µM,22.31%
same,GP (growth percent),TK-10; one dose 10 µM,77.69
same,TGI,DU-145; 5-dose 0.01-100 µM,13.0 µM
same,GI50,DU-145; [2],3.67 µM
same,CC50,DU-145; [3],45.3 µM
same,%GI,DU-145; one dose 10 µM,52.45%
same,GP (growth percent),DU-145; one dose 10 µM,47.55
same,Mean % GI,Leukemia cell line panel; 10 µM,91.31%
same,Selectivity Ratio (MID a:MID b),Leukemia cell line panel; 5-dose assay,1.27
same,GI50,"Leukemia cell line panel; 5-dose assay, read-out: GI50 values, range over the leukemia panel",1.48 to 2.73 µM
same,GI50,"Leukemia cell line panel; 5-dose assay, read-out: Sub Panel MID b (mean GI50 of panel)",2.24 µM
same,Mean % GI,Melanoma cell line panel; 10 µM,60.81%
same,GI50,Melanoma cell line panel; [4],2.51 µM
same,Mean % GI,[1]; 10 µM,57.21%
same,Selectivity Ratio (MID a:MID b),[1]; 5-dose assay,0.82
same,GI50,[1]; [4],3.44 µM
same,GI50,"60 NCI cancer cell lines; read-out: GI50 values, range over cell lines",1.48 to 7.29 µM
same,GI50,60 NCI cancer cell lines; read-out: MID a (mean GI50 of 60 NCI cancer cell lines),2.84 µM
same,Mean % GI,60 NCI cancer cell lines; [5],59.26%
same,Mean GP,60 NCI cancer cell lines; [5],40.74
same,IC50,EGFR,4.18 µM
